Assay results: the supplement of paper PMC4862054

Assays:
Assay in all cases: normalised response (% of control), CellTiter-Glo; higher = more viable cells (100 = DMSO, 0 = benzethonium chloride kill control)
Conditions in all cases: incubation time: 72 h
BT-474 = test system: BT-474
Outline: (§1)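 Every value is a normalised signal taken at one concentration of a dilution series. Compound was placed in 384-well plates at 5 concentrations in 10-fold steps over a compound-specific 10,000-fold range, and 20 µl of breast cancer cell suspension was seeded onto it. After 72 h, CellTox Green fluorescence (485/520 nm) was measured first and CellTiter-Glo luminescence second, following 10 min at room temperature. Each plate was scaled to 0.1 % DMSO (100) and a positive kill control (0).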

BT-549 = test system: BT-549
Outline: as §1

CAL-120 = test system: CAL-120
Outline: as §1

CAL-148 = test system: CAL-148
Outline: as §1

CAL-51 = test system: CAL-51
Outline: as §1

DU-4475 = test system: DU-4475
Outline: as §1

HCC1143 = test system: HCC1143
Outline: as §1

HCC1599 = test system: HCC1599
Outline: as §1

HCC1937 = test system: HCC1937
Outline: as §1

HDQ-P1 = test system: HDQ-P1
Outline: as §1

Hs578T = test system: Hs578T
Outline: as §1

MCF-10A = test system: MCF-10A
Outline: as §1

MDA-MB-231 = test system: MDA-MB-231
Outline: as §1

MDA-MB-436 = test system: MDA-MB-436
Outline: as §1

MDA-MB-453 = test system: MDA-MB-453
Outline: as §1

MDA-MB-468 = test system: MDA-MB-468
Outline: as §1

MFM-223 = test system: MFM-223
Outline: as §1

SK-BR-3 = test system: SK-BR-3
Outline: as §1

Question: How did the normalised response (BT-474) turn out when `CCCC(CCC)C(=O)O` [Valproic acid] (10000 nM) was run?
Answer: 102%

Question: What about the normalised response (BT-549) of the same compound?
Answer: 107%

Question: What about the normalised response (CAL-120) of the same compound?
Answer: 111%

Question: And the normalised response (CAL-148)?
Answer: 87%

Question: What about the normalised response (CAL-51) of the same compound?
Answer: 95.9%

Question: And the normalised response (DU-4475)?
Answer: 98.2%

Question: What about the normalised response (HCC1143) of the same compound?
Answer: 108%

Question: What about the normalised response (HCC1599) of the same compound?
Answer: 87.8%

Question: What about the normalised response (HCC1937) of the same compound?
Answer: 95.9%

Question: And the normalised response (HDQ-P1)?
Answer: 102%

Question: What about the normalised response (Hs578T) of the same compound?
Answer: 99.3%

Question: What about the normalised response (MCF-10A) of the same compound?
Answer: 106%

Question: What about the normalised response (MDA-MB-231) of the same compound?
Answer: 103%

Question: What about the normalised response (MDA-MB-436) of the same compound?
Answer: 105%

Question: And the normalised response (MDA-MB-453)?
Answer: 93.7%

Question: And the normalised response (MDA-MB-468)?
Answer: 95.3%

Question: What about the normalised response (MFM-223) of the same compound?
Answer: 96.1%

Question: What about the normalised response (SK-BR-3) of the same compound?
Answer: 96.1%
